Source: patent US10357036B2, “Compounds for controlling arthropods” (priority 2015, dated 2019)

What was measured:
Ctenocephalides felis [1] = assay: Ctenocephalides felis oral test; format: in vivo; conditions: 100 ppm in citrated cattle blood; after 2 days
Myzus persicae = Myzus persicae spray test (Chinese cabbage leaf discs); format: in vivo; conditions: 100 g/ha; after 6 days
Protocol: (§1) After 6 days, the efficacy in % is determined.

Boophilus microplus = Boophilus microplus injection test; format: in vivo; conditions: 20 μg/animal; assessed after 7 days
Protocol: (§2) • Solvent: dimethyl sulfoxide
1 μl of the active ingredient solution is injected into the abdomen of 5 engorged adult female cattle ticks (Boophilus microplus). The animals are transferred into dishes and kept in a climate-controlled room.

Phaedon cochleariae = Phaedon cochleariae spray test; conditions: 100 g/ha; after 7 days
Spodoptera frugiperda = Spodoptera frugiperda spray test; format: in vivo; conditions: 100 g/ha; after 7 days
Musca domestica = Musca domestica test; format: in vivo; conditions: 100 ppm; adult houseflies; after 2 days
Protocol: as §2
To produce a suitable active ingredient formulation, 10 mg of active ingredient are mixed with 0.5 ml of dimethyl sulfoxide, and the concentrate is diluted with water to the desired concentration.
Vessels containing a sponge treated with sugar solution and the active ingredient formulation of the desired concentration are populated with 10 adult houseflies (Musca domestica).

Tetranychus urticae = Tetranychus urticae spray test, OP-resistant (bean leaf discs); format: in vivo; conditions: 100 g/ha; after 6 days
Protocol: as §1

Ctenocephalides felis [2] = assay: Ctenocephalides felis in vitro contact test with adult cat fleas; format: in vivo; conditions: application rate 5 μg/cm^2 (=500 g/ha); after 48 h; dead or moribund fleas
Protocol: (§3) For the coating of the test tubes, 9 mg of active ingredient are first dissolved in 1 ml of acetone p.a. and then diluted to the desired concentration with acetone p.a. 250 μl of the solution are distributed homogeneously on the inner walls and the base of a 25 ml glass tube by turning and rocking on an orbital shaker (rocking rotation at 30 rpm for 2 h). With 900 ppm of active ingredient solution and internal surface area 44.7 cm^2, given homogeneous distribution, an area-based dose of 5 μg/cm^2 is achieved.
After the solvent has evaporated off, the tubes are populated with 5-10 adult cat fleas (Ctenocephalides felis), sealed with a perforated plastic lid and incubated in a horizontal position at room temperature and ambient humidity. After 48 h, efficacy is determined. To this end, the tubes are stood upright and the fleas are knocked to the base of the tube. Fleas which remain motionless at the base or move in an uncoordinated manner are considered to be dead or moribund.
100% efficacy means that all the fleas were dead or moribund. 0% efficacy means that no fleas were harmed.

[3] = test system: cattle ticks (Boophilus microplus) Parkhurst strain, SP-resistant; assay: Boophilus microplus dip test; format: in vivo; conditions: 100 ppm; assessed after 7 days
Protocol: • Test animals: cattle ticks (Boophilus microplus) Parkhurst strain, SP-resistant • Solvent: dimethyl sulfoxide
10 mg of active ingredient are dissolved in 0.5 ml of dimethyl sulfoxide. To produce a suitable formulation, the active ingredient solution is diluted with water to the concentration desired in each case.
This active ingredient formulation is pipetted into tubes. 8-10 engorged adult female cattle ticks (Boophilus microplus) are transferred into a further tube with holes. The tube is immersed into the active ingredient formulation, and all the ticks are completely wetted. After the liquid has run out, the ticks are transferred on filter discs into plastic dishes and stored in a climate-controlled room.
Efficacy is assessed after 7 days by laying of fertile eggs. Eggs which are not visibly fertile are stored in a climate-controlled cabinet until the larvae hatch after about 42 days. An efficacy of 100% means that none of the ticks has laid any fertile eggs; 0% means that all the eggs are fertile.

Rhipicephalus sanguineus = Rhipicephalus sanguineus in vitro contact test with adult brown dog ticks; format: in vivo; conditions: after 48 h
Protocol: as §3
After the solvent has evaporated off, the tubes are populated with 5-10 adult dog ticks (Rhipicephalus sanguineus), sealed with a perforated plastic lid and incubated in a horizontal position in the dark at room temperature and ambient humidity. After 48 h, efficacy is determined. To this end, the ticks are knocked to the base of the tube and incubated on a hotplate at 45-50° C. for not more than 5 min. Ticks which remain motionless on the base or move in such an uncoordinated manner that they are unable to deliberately avoid the heat by climbing upwards are considered to be dead or moribund.
An efficacy of 100% means that all the ticks were dead or moribund. 0% efficacy means that none of the ticks were harmed.

[4] = application rate 5 μg/cm^2 (=500 g/ha), dead or moribund ticks

Row | Structure (SMILES) | efficacy (rate of extermination) (Ctenocephalides felis [1]) [%] | efficacy (Myzus persicae) [%] | efficacy (laying of fertile eggs) (Boophilus microplus) [%] | efficacy (Phaedon cochleariae) [%] | efficacy (Spodoptera frugiperda) [%] | efficacy (rate of extermination) (Musca domestica) [%] | efficacy (Tetranychus urticae) [%] | efficacy (Ctenocephalides felis [2]) [%] | efficacy (laying of fertile eggs) [3] [%] | efficacy (Rhipicephalus sanguineus; [4]) [%] | efficacy (Rhipicephalus sanguineus; application rate 1 μg/cm^2 (=100 g/ha)) [%]
1 | CC(=O)NCc1c(F)ccc(-c2cnn(-c3c(Cl)cc(C(F)(C(F)(F)F)C(F)(F)F)cc3Cl)c2)c1F [Ia-149] | 100 | 90 | 100 | 100 | 100 | 100 | 100 | 100 |  |  | 
2 | CC(=O)NCc1cc(-c2cnn(-c3c(Cl)cc(C(F)(C(F)(F)F)C(F)(F)F)cc3C(F)F)c2)ccc1Cl [Ia-106] | 100 |  | 100 | 100 | 100 | 100 | 100 |  | 100 |  | 
3 | CC(=O)NCc1cccc(-c2cnn(-c3c(Cl)cc(C(F)(C(F)(F)F)C(F)(F)F)cc3OC(F)F)c2)c1F [Ia-155] | 100 | 90 | 100 | 100 | 100 | 100 |  |  |  |  | 
4 | CCC(=O)NCc1cccc(-c2cnn(-c3c(Cl)cc(C(F)(C(F)(F)F)C(F)(F)F)cc3OC(F)F)c2)c1F [Ia-159] | 100 | 90 | 100 | 100 | 100 | 100 |  |  |  |  | 
5 | CC(=O)NCc1cc(-c2cnn(-c3c(Cl)cc(C(F)(C(F)(F)F)C(F)(F)F)cc3OC(F)F)c2)cnc1Cl [Ia-156] |  | 90 |  | 100 | 100 |  | 100 |  |  |  | 
6 | CC(=O)N(C)Cc1cc(-c2cnn(-c3c(Cl)cc(C(F)(C(F)(F)F)C(F)(F)F)cc3OC(F)(F)F)c2)cnc1Cl [Ia-136] | 100 | 100 | 100 | 100 | 100 | 100 | 100 | 100 |  |  | 
7 | CCC(=O)NCc1cc(-c2cnn(-c3c(C)cc(C(F)(C(F)(F)F)C(F)(F)F)cc3Cl)c2)ccc1C [Ia-76] | 100 | 90 | 100 | 100 | 100 | 100 | 100 | 100 |  | 100 | 
8 | CCC(=O)N(C)Cc1cc(-c2cnn(-c3c(Cl)cc(C(F)(C(F)(F)F)C(F)(F)F)cc3OC(F)(F)F)c2)cnc1Cl [Ia-135] |  | 90 |  | 100 | 100 |  | 100 |  |  |  | 
9 | CC(=O)NCc1cc(-c2cnn(-c3c(Cl)cc(C(F)(C(F)(F)F)C(F)(F)F)cc3Br)c2)ccc1Cl [Ia-91] | 100 |  | 100 | 100 | 100 | 100 | 100 |  | 80 |  | 
10 | CC(=O)NCc1cc(-c2cnn(-c3c(Cl)cc(C(F)(C(F)(F)F)C(F)(F)F)cc3S(C)(=O)=O)c2)ccc1F [Ia-11] | 100 | 100 | 100 | 100 |  | 100 | 100 |  |  | 100 | 
11 | O=C(NCc1cc(-c2cnn(-c3c(Cl)cc(C(F)(C(F)(F)F)C(F)(F)F)cc3C(F)F)c2)ccc1F)C1CC1 [Ia-58] |  | 70 |  | 100 | 100 |  | 100 |  |  |  | 
12 | CCC(=O)NCc1cc(-c2cnn(-c3c(Cl)cc(C(F)(C(F)(F)F)C(F)(F)F)cc3C(F)(F)F)c2)ccc1F [Ia-83] | 100 |  | 100 | 100 | 100 | 100 | 90 | 100 | 80 | 100 | 
13 | CCC(=O)NCc1cc(-c2cnn(-c3c(Cl)cc(C(F)(C(F)(F)F)C(F)(F)F)cc3C(F)F)c2)ccc1Cl [Ia-115] | 100 |  | 100 | 100 | 100 | 100 | 100 | 100 | 100 | 100 | 
14 | CC(=O)NCc1cc(-c2cnn(-c3c(Cl)cc(C(F)(C(F)(F)F)C(F)(F)F)cc3C#N)c2)ccc1C [Ia-96] | 100 |  | 100 |  | 100 |  | 100 |  | 90 |  | 100
15 | CC(=O)NCc1cc(-c2cnn(-c3c(C)cc(C(F)(C(F)(F)F)C(F)(F)F)cc3Cl)c2)ccc1C [Ia-75] | 100 |  | 100 | 100 | 100 | 100 | 100 | 100 | 100 | 100 | 
16 | CCC(=O)NCc1cc(-c2cnn(-c3c(Cl)cc(C(F)(C(F)(F)F)C(F)(F)F)cc3C(F)(F)F)c2)cnc1Cl [Ia-138] |  | 90 |  | 100 | 100 |  | 90 |  |  |  | 
17 | CCC(=O)N(C)Cc1cc(-c2cnn(-c3c(Cl)cc(C(F)(C(F)(F)F)C(F)(F)F)cc3Cl)c2)cnc1Cl [Ia-134] | 100 | 100 | 100 | 100 | 100 | 100 | 100 | 100 |  |  | 
18 | CCC(=O)NCc1cc(-c2cnn(-c3c(Cl)cc(C(F)(C(F)(F)F)C(F)(F)F)cc3C(F)(F)F)c2)ccc1C [Ia-80] | 100 | 90 | 100 | 83 | 100 | 100 | 100 | 100 |  | 100 | 
19 | CC(=O)NCc1c(F)ccc(-c2cnn(-c3c(Cl)cc(C(F)(C(F)(F)F)C(F)(F)F)cc3C(F)(F)F)c2)c1F [Ia-147] | 100 | 90 | 100 | 100 | 100 | 100 | 100 | 100 |  | 100 | 
20 | CCC(=O)NCc1cccc(-c2cnn(-c3c(Cl)cc(C(F)(C(F)(F)F)C(F)(F)F)cc3Cl)c2)c1F [Ia-152] | 100 | 100 | 100 | 100 | 100 | 100 |  |  |  |  | 
21 | CCC(=O)NCc1cc(-c2cnn(-c3c(Cl)cc(C(F)(C(F)(F)F)C(F)(F)F)cc3C(F)F)c2)cnc1Cl [Ia-154] |  | 90 |  | 100 | 100 |  | 100 |  |  |  | 
